Tests used:
Assay type in all cases: cell-based
[1] = test system: CD34+cells; experiment: erythroid colony formation in methylcellulose, CD34+ cells; settings: colonies counted on day 14
Excerpt: CD34+cells were isolated and seeded in the presence of compound. The colonies were counted on day 14.

[2] = test system: EPO-Receptor down stream signaling pathway in TF-1 or UT-7 cells; experiment: In vitro signaling (EPO-R activation)
Protocol: UT-7 cells were grown in Minimal Essential Medium Alpha (MEM-α) containing 20% FBS, 1.5 g/L NaHCO3, 5 ng/ml GM-CSF, and 100U Penicillin/100 ug/ml Streptomycin Sulfate (“P/S”), in T150 flasks (60 ml/flask) at 37° C., 5% CO2 to a density of no more than 5×10^5 cells/ml. The cells were starved overnight in MEM-α containing 10% FBS, 1.5 g/L NaHCO3 and P/S in T150 flasks (60ml/flask) at a density of 5×10^5 cells/ml, in 5% CO2, 37° C. The cells were then centrifuged in a swinging-bucket rotor at 200×g for 5 minutes at room temperature. The supernatant was removed, and the cells pooled into one 50 ml conical tube. The cells were washed twice with serum-free medium (MEM-alpha containing 1.5 g/L NaHCO3 and P/S). After the last wash, the cells were resuspended to a density of 1×10^7 cells/ml in serum-free medium. The cells were then placed in 15 ml conical tubes in 1 ml aliquots and incubated with the caps loosened for 1 hour at 37° C., 5% CO2. Every 10 minutes, the lower portion of each tube was tapped (flicked) several times to prevent the cells from settling (please note, this step is very important!)
It was also observed that EPO-R was phosphorylated when stimulated with non-peptide EPO-R modulators. (See FIG. 4) […]

[3] = test system: TF-1 and UT-7 cells; experiment: biological testing in cell lines (cell proliferation assay and cell signaling assay)
Excerpt: Compounds identified in the initial screen were further tested for their biological activity in two assays: a cell proliferation assay and a cell signaling assay in TF-1 and UT-7 cells. The hit rate in cell proliferation was 0.16%; hit rate in cell signaling was 0.25%.
At the end of the biological testing in cell lines TF-1 and UT-7, E4, E5, E5 analogs and E6 molecules were some of the compounds identified as showing the best activity.
Compounds identified in the initial screen were further tested for their biological activity in two assays: a cell proliferation assay and a cell signaling assay in TF-1 cells. The hit rate in cell proliferation was 0.16%; hit rate in cell signaling was 0.25%.
At the end of the biological testing in cell line, E4, E5, E5 analog, and E6 molecules were some of the compounds identified as showing the best activity.

## Cc1ccc(Cl)cc1Nc1nc2nc(C)c(NCC3CC3)cn2n1 [Compound E5]
[1]
  cooperation with EPO on erythroid colony formation: cooperation
[2]
  activation of EPO-R: activation of EPO-R
[3]; cell line (TF-1 cells)
  maximum activity compared to EPO natural hormone: maximum activity comparable to that of the maximum activity of EPO
[3]; cell lines TF-1 and UT-7, in the presence of low levels of EPO
  maximum activity compared to EPO natural hormone: maximum activity comparable to that of the maximum activity of EPO

Source: patent US20040116346A1, “Affinity small molecules for the EPO receptor” (priority 2002, published 2004)
